Columns and labels:
[1] = system: mice; settings: Swiss albino, mouse, in vivo, po, 72 h
Protocol: All animals were then treated orally with different doses of CHF. […] Immediately after dosing, the mice were observed continuously for 4 h for symptoms of toxicity such as motor activity, convulsions, muscle spasm, tremors, sedation, lacrimation, hypnosis, diarrhoea, salivation, and loss of righting reflex. Mice were then kept under observation up to 72 h for any mortality. The CHF. […] Therefore, according to OECD guidelines, CHF.

[2] = system: scopolamine-induced cognitive impairment in mice; assay: Y-maze test, scopolamine-induced amnesia; format: in vivo
Protocol: (§1) After the acclimatization period, in scopolamine-induced amnesia test the Albino male mice were randomly divided into six groups (n = 6) to study the effect of CHF. […] The doses of tested solutions of CHF. […] The treatments were continued for 8 days. In the Y-maze and Novel object recognition tests, scopolamine (1 mg/kg, i.p.) was given to the different groups only on the 8th day, 30 min after the respective treatments, to induce cognitive deficit in mice. One hour after administration of the drugs all animals were subjected to Y-maze and Novel object recognition test following standard procedure.
The Y-Maze test was designed to evaluate the short term memory in experimental mice using reported procedure. Y-maze apparatus is Y shaped with three arms of equivalent size, labelled as A, B, and C. Each arm was 20 cm long, 6 cm wide and 15.5 cm high and was oriented at an angle of 120° from the other two. For each animal the Y maze testing was carried out for 5 min. Mice were placed in one arm, and the order and number of arm entries were recorded. An arm entry was considered to be complete when the hind paws of the mice was completely inside a given arm while alternation was defined as consecutive entries by a mouse into the three different arms. The arena was cleaned using 70% v/v ethanol between each trial to avoid olfactory cues. The escape latency (second) on day 1–5 were recorded for all animals. At the end of 5th day, the spontaneous alteration behavior study was conducted. In spontaneous alteration study, each animal was placed at the center of the Y-Maze apparatus and allowed to move freely through the maze. The series of arm entries were visually recorded. To start behavioral test the mice was set in one arm and recorded the number of arm entries, same arm returns (SAR), and alternate arm returns (AAR) were measured. Percent spontaneous alternation performance (SAP) was calculated by the following formula: 5 %SAP=Active alterationstotal alterations/Possible alterationstotalarmentries−2x100

[3] = target: T1, AChE (Mus musculus, UniProt P21836); format: in vivo; settings: ex vivo, NORT animals, vs scopolamine treated group
T1 construct: supernatants were collected from homogenized part of brain tissues; from tissue; host or cells: mouse frontal cortex and hippocampus homogenate supernatant
T1 sequence (P21836 32-614): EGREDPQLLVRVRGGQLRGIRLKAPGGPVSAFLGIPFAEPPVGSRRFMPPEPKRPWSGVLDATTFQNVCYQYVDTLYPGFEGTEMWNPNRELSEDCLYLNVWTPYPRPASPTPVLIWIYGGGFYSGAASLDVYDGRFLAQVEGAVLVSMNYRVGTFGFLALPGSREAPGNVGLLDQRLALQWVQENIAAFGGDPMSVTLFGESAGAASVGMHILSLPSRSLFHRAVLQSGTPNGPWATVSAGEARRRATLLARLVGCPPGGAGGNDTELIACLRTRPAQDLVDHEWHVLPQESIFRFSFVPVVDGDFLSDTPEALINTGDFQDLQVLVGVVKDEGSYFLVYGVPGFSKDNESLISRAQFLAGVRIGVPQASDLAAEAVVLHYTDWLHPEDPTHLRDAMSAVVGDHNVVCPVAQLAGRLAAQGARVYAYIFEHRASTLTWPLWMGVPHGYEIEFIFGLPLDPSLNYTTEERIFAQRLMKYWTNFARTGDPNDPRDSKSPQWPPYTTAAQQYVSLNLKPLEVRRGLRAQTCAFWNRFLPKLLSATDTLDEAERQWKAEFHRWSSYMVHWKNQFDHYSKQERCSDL
Protocol: (§2) The frontal cortex (FC) and hippocampus (HC) were dissected out in ice cold 0.1 M phosphate buffer saline (pH 8.0). The tissues were weighed and 20 mg tissue/mL homogenate of brain samples was prepared in phosphate buffer (pH 8.0). The homogenates were centrifuged at 10,000 rpm for 10 min at 4 °C, and the resulting supernatant was used for the estimation of anti-cholinesterase activity following Ellman’s and antioxidants assays.
(§3) Ex vivo analysis of cholinesterase inhibitory potentials was also measured to check the cholinergic hypo function in animal model using the isolated compound CGA and CHF extract.

[4] = target: T2, BChE (Mus musculus, UniProt Q03311); format: in vivo; settings: ex vivo, NORT animals, vs scopolamine treated group
T2 construct: supernatants were collected from homogenized part of brain tissues; from tissue; host or cells: mouse frontal cortex and hippocampus homogenate supernatant
T2 sequence (Q03311 30-603): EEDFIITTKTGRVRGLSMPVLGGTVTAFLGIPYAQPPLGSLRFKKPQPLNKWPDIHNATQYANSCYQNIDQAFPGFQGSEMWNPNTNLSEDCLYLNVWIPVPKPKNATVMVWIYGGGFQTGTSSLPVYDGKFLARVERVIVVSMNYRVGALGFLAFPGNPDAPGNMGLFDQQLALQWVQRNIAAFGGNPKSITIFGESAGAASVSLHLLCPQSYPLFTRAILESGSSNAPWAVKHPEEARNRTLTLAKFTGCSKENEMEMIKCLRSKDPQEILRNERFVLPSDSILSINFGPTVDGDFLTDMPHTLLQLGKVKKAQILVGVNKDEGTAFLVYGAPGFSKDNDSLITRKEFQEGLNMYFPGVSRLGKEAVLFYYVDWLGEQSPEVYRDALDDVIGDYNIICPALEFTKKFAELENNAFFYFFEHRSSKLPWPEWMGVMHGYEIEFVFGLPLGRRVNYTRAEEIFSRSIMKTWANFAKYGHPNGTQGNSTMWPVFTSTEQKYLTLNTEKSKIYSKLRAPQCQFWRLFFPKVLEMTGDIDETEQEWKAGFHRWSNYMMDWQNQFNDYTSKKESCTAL
Protocol: as §2, §3

[5] = Ex vivo brain DPPH free radicals scavenging activity; format: in vivo, mice
Protocol: as §2

[6] = system: scopolamine-induced cognitive impairment in mice; assay: Novel object recognition test, scopolamine-induced amnesia; format: in vivo
Protocol: as §1
The detail methodology published, was followed while performing the novel object recognition (NORT) test. NORT consisting of habituation, sample, and test phases. On the day before test, mice were allowed to explore the box (without any object) for 2 min. On the day of test after habituation the sample phase was carried out 60 min after the last treatment on the 8th day. In sample phase each mouse was placed in an open field with two identical objects (plastic ball) for 5 min. The mouse was then returned to its home cage. The apparatus was comprised of a white coloured plywood box (40 cm × 40 cm × 66 cm) with a network floors that could be effortlessly cleaned (with 70%v/v ethanol) after every trial. The apparatus was illuminated by a 60 W light suspended 50 cm over the crate. The arena and objects were cleaned with 70% v/v ethanol between trials to avoid olfactory cues. For short-term memory, the test phase was performed 5 min after the sample phase. In the test phase, each mouse was placed again in the open field in which one of the identical objects had been replaced with a novel object (plastic square). The location of the object was counterbalanced so that one half of the mice in each group saw the novel object on the left side of the box arena, and the other half saw the novel object on the right side of the box arena to eliminate bias of sides. NORT can also be used for encoding and retrieval of spatial memory (long-term memory). A wash-out period of 5 days was allowed before the NORT to assess long-term memory in mice. The procedure was the same as that for short-term memory except that mice were presented in the test phase 24 h after the sample phase exposure. The time spent exploring each object in each phase was recorded manually using a stopwatch. A mouse was scored as exploring when its head was oriented towards the object within a distance of 2 cm or when the nose was in contact with the object. Parameters including the time (in seconds) spent exploring familiar (F) object, time (in seconds) spent exploring the novel (N) object, and total time (in seconds) spent exploring both objects (N + F) were measured separately.

[7] = target: T3, Acetyl cholinesterase (Electron-eel Type, VI-S) (Electrophorus electricus, UniProt O42275); assay: biochemical; format: biochemical
T3 construct: purchased Sigma-Aldrich, Germany
T3 sequence (O42275 24-633): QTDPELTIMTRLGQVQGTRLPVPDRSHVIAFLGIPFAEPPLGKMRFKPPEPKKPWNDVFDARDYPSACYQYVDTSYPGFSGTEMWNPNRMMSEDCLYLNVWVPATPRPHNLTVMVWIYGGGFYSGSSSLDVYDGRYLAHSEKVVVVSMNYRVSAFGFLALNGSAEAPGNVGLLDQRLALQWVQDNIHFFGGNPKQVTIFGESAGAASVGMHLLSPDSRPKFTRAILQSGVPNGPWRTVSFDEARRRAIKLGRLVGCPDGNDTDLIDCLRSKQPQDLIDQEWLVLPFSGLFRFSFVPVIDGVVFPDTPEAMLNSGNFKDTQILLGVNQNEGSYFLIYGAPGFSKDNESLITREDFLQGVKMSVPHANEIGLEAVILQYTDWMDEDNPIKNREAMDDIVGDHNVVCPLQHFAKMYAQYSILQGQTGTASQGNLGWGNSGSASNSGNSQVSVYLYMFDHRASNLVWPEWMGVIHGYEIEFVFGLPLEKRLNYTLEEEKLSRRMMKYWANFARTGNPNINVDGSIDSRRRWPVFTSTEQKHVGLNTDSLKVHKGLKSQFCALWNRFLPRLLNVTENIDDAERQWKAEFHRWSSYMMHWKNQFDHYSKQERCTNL
Protocol: Ellman assay was used to evaluate E. umbellata fruit extracts and isolated compounds for their anticholinesterase potentials. About 205 μL extract/compound solutions and 5 μL of AChE (0.03 U/mL)/BChE (0.01 U/mL) along with catalyst DTNB (5 μL) were taken in a cuvette and kept at 30 °C in hot water bath for 15 min. […] As a negative control solution all the above mentioned components except extracts and isolated compounds were mixed in the mentioned order.
V is inhibitor dependent rate of reaction while, Vmax is inhibitor independent rate of reaction.

[8] = vs scopolamine (1 mg/kg) group, CHF. Ext 200 mg/kg, CGA 10 and 30 mg/kg, donepezil 2 mg/kg

O=C(/C=C/c1ccc(O)c(O)c1)O[C@@H]1C[C@](O)(C(=O)O)C[C@@H](O)[C@H]1O [Compound-I, Chlorogenic acid]
dose range that remained safe and nontoxic [1]: up to 300 mg/kg
escape latency ([2]; day 1-5, vs scopolamine treated group): significant decline (p < 0.001)
total numbers of entries into arms ([2]; treated groups compared to control group): non-significant (p > 0.05) decrease
percentage of alternate arm returns [2, 8]: significant (*p<0.05; **p < 0.01) increase
percentage of same arm returns [2, 8]: significant (p < 0.01) reduction
% AChE activity in cortex and hippocampus [3]: significantly (***p < 0.001; **p < 0.01) lower
% BChE activity in cortex and hippocampus [4]: significantly (***p < 0.001; **p < 0.01) lower
% anti-radicals activities (DPPH) in cortex ([5]; NORT animals, cortex): 51.43 ± 2.88%
% anti-radicals activities (DPPH) in hippocampus ([5]; NORT animals, hippocampus): 65.36 ± 1.45%
% DPPH inhibition potential in cortex ([5]; Y-maze test animals, frontal cortex): 47.85 ± 2.11%
% DPPH inhibition potential in hippocampus ([5]; Y-maze test animals, hippocampus): 44.12 ± 1.77%
time for exploration of novel object, test phase, long term memory ([6]; CHF. Ext 100 & 200 mg/kg, CGA 10 & 30 mg/kg, donepezil 2 mg/kg): significant (*p < 0.05, **p < 0.01) increase
%DI, long term memory ([6]; CHF. Ext 100, 200 mg/kg, CGA 10 & 30 mg/kg, donepezil 2 mg/kg): significant (*p < 0.05, **p < 0.01) increase
time with novel object, test phase, short term memory ([6]; vs scopolamine group (*p < 0.05, **p < 0.01), CHF. Ext 50, 100, 200 mg/kg, CGA 10 and 30 mg/kg, donepezil 2 mg/kg): more time with novel object
time for exploration of two objects, sample phase, short term memory ([6]; vs scopolamine treated group): no significant difference
total time spent exploring the two identical objects, sample phase, long term memory ([6]; vs scopolamine treated group): no significant differences
% AChE Mean ± SEM ([7]; 31.05 µg/mL): 50±0.4^ ns %
% AChE Mean ± SEM ([7]; 62.5 µg/mL): 59±0.3 %
% AChE Mean ± SEM ([7]; 125 µg/mL): 68±0.4 %
% AChE Mean ± SEM ([7]; 250 µg/mL): 76±0.5 %
% AChE Mean ± SEM ([7]; 500 µg/mL): 82±0.1 %
% AChE Mean ± SEM ([7]; 1000 µg/mL, listed as Compound -I): 90±0.2^ns %
% AChE Mean ± SEM ([7]; 1000 µg/mL, listed as Compound I): 90 ± 0.2%
IC50 ([7]; linear regression, read-out: AChE IC50 (converted)): 87.5 µM

From paper PMC7216467, “Evaluation of neuroprotective and anti-amnesic effects of Elaeagnus umbellata Thunb. On scopolamine-induced memory impairment in mice” (BMC Complementary Medicine and Therapies, 2020)
